This is an account of results in ChEMBL document CHEMBL5465560, “Selectivity Literature for EUbOPEN Chemogenomic Library” (2024).

Test [1] concerns the target T1, Serine/threonine-protein kinase Sgk3 (Homo sapiens) (UniProt Q96BR1).
T1 sequence (whole entry): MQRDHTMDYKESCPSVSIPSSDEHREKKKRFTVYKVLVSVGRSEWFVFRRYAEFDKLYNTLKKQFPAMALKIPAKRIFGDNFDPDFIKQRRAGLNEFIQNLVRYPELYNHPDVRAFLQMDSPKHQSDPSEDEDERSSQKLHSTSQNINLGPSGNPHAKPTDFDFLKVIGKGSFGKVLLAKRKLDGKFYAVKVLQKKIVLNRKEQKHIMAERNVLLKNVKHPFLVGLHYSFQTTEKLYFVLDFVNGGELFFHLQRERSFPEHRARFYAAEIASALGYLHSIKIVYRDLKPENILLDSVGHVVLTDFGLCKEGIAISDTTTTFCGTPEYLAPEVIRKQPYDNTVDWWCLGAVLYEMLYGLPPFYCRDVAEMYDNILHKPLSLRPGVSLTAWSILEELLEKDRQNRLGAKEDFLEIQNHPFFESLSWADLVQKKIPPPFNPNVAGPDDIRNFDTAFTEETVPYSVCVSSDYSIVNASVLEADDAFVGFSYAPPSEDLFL
In words: Selectivity interaction (Kinase panel (Z-LYTE Assay)) EUB0001632a SGK3. The settings on record: at 10 µM.

For test [2], the target named is T2, Myosin light chain kinase family member 4 (Homo sapiens) (UniProt Q86YV6).
T2 sequence (whole entry): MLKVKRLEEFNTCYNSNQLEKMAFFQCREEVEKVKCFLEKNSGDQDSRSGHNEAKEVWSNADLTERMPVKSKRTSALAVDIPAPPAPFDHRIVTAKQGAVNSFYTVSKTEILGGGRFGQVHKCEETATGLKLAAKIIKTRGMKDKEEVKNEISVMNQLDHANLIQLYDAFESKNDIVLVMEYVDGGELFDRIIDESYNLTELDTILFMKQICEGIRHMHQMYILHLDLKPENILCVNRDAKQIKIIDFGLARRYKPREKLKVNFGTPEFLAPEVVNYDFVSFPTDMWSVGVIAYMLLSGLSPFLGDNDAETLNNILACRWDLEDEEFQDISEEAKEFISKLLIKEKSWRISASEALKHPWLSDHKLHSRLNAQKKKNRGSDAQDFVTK
The settings on record: at 10 µM.

In test [3] the target is T3, Ephrin type-A receptor 3 (Homo sapiens) (UniProt P29320).
T3 sequence (whole entry): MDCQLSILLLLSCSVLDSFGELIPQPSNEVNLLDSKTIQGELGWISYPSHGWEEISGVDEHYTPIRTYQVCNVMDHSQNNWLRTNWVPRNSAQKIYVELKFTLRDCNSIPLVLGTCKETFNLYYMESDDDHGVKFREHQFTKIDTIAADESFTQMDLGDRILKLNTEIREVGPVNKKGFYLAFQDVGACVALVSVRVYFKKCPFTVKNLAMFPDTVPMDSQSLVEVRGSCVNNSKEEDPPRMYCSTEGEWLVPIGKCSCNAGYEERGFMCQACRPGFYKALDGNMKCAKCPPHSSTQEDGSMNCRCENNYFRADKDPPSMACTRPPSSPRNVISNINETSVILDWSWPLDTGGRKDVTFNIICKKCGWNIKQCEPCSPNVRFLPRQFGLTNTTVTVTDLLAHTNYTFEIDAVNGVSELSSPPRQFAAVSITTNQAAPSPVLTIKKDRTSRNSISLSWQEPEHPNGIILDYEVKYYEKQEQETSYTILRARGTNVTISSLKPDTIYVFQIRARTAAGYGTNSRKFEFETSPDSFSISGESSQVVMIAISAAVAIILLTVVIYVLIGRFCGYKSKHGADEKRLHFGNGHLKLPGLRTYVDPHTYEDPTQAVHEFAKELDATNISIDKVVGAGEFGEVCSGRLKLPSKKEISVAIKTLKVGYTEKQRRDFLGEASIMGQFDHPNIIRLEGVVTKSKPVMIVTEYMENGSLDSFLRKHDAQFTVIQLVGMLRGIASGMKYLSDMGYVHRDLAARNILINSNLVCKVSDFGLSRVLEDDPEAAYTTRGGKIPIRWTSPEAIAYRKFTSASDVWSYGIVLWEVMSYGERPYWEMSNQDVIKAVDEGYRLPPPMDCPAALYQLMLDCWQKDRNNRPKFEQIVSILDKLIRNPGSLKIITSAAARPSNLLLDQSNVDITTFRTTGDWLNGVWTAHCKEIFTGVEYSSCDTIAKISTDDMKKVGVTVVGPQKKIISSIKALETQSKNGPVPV
In words: Selectivity interaction (KinomeScan (DiscoverX)) EUB0000229b EPHA3. The settings on record: at 10 µM.

The target in test [4] is T4, Serine/threonine-protein kinase DCLK2 (Homo sapiens) (UniProt Q8N568).
T4 sequence (whole entry): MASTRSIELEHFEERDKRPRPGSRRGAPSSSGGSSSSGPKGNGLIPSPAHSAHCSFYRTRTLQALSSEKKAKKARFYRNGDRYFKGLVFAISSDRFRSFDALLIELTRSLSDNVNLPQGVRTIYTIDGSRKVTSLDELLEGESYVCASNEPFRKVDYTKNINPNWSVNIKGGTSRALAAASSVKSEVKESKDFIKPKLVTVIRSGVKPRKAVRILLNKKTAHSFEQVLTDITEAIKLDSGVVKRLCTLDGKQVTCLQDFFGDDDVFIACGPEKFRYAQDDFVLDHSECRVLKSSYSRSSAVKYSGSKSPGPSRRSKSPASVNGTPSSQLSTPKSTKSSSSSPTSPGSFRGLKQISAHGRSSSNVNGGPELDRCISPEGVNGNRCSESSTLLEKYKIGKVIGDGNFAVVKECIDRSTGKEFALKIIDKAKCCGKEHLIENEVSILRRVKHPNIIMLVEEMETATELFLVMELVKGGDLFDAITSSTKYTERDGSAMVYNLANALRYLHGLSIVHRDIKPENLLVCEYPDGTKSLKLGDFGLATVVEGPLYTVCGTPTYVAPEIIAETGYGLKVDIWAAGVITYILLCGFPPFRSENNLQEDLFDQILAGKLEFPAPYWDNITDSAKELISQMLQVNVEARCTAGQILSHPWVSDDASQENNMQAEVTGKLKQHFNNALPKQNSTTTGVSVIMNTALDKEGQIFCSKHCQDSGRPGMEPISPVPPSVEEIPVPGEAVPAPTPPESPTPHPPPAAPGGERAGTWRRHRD
The settings on record: at 10 µM.

The target of test [5] is SRSF protein kinase 2 (Homo sapiens) (UniProt P78362). Description: Selectivity interaction (KinomeScan (DiscoverX)) EUB0001049a SRPK2. The settings on record: at 1 µM.
SRSF protein kinase 2 (Homo sapiens), sequence (P78362 whole entry, looked up): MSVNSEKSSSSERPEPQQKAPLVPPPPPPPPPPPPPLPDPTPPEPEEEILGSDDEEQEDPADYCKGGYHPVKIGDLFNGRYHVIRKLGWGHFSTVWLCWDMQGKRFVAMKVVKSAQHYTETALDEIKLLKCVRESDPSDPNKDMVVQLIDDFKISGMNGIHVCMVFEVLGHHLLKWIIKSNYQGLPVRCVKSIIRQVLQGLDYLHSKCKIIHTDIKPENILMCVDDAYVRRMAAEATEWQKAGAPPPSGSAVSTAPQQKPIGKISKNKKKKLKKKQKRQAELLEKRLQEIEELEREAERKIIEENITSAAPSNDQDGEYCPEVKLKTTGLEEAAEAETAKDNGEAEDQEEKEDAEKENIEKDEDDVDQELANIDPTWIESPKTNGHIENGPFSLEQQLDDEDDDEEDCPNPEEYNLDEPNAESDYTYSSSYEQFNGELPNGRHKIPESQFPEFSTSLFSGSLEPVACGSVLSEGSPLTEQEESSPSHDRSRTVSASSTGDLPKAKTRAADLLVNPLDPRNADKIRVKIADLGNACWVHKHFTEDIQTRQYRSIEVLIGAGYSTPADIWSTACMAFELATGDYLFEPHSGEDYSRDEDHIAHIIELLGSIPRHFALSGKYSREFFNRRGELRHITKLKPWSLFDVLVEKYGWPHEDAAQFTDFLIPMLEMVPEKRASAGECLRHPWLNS
In test [6] the target is Mitogen-activated protein kinase kinase kinase kinase 4 (Homo sapiens, UniProt O95819). In words: Selectivity interaction (KinomeScan (DiscoverX)) EUB0000695a MAP4K4. The settings on record: at 100 nM.
Mitogen-activated protein kinase kinase kinase kinase 4, sequence (O95819 2-1239 limits assumed): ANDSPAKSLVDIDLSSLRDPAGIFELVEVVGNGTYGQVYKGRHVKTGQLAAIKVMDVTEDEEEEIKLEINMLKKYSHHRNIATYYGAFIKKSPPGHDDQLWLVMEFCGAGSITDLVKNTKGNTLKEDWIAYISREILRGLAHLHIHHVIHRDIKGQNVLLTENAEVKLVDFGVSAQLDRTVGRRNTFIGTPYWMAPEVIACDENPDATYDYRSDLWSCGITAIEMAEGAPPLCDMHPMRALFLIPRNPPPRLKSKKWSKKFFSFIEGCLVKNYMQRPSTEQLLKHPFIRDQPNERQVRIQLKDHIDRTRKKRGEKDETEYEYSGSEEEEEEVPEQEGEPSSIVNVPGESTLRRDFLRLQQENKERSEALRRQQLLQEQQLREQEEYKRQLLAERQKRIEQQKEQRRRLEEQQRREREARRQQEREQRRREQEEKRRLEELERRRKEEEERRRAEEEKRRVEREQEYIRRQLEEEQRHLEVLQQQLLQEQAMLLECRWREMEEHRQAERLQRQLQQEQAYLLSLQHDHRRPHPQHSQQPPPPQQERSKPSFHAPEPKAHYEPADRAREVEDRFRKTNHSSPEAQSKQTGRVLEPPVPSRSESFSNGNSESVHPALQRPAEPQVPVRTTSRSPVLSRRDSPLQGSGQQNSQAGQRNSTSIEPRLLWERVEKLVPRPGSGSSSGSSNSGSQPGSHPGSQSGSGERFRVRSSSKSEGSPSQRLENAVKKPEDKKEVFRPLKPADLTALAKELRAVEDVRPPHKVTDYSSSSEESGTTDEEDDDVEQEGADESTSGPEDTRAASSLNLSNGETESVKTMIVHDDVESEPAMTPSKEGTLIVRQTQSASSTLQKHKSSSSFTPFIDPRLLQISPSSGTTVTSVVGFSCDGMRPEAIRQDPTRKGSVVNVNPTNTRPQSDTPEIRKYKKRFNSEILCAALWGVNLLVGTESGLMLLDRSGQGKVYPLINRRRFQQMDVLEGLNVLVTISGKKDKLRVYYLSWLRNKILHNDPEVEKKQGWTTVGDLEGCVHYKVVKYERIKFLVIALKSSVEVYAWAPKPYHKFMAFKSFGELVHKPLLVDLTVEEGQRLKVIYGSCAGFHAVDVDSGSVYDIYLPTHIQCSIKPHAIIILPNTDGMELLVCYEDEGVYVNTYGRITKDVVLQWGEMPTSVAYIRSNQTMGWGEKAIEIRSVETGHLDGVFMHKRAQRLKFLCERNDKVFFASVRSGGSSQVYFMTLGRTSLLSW
Test [7] deals with RAC-gamma serine/threonine-protein kinase (Homo sapiens, UniProt Q9Y243). In words: Selectivity interaction (Kinase panel (DSF assay)) EUB0001559a AKT3.
RAC-gamma serine/threonine-protein kinase, sequence (Q9Y243 whole entry): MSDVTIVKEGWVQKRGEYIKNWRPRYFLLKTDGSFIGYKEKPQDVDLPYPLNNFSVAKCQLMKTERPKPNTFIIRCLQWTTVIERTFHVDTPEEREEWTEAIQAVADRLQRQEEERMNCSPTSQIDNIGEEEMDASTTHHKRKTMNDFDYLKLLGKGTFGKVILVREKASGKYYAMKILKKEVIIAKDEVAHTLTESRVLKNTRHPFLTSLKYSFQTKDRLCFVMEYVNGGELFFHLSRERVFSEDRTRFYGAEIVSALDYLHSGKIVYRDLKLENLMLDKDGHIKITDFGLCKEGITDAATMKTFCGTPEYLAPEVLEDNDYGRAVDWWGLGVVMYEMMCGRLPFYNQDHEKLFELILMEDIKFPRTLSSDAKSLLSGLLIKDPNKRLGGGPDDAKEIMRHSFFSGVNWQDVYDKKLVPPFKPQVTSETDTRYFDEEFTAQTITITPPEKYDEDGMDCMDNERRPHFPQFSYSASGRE
Test [8] has as its target Myosin light chain kinase family member 4 (Homo sapiens, UniProt Q86YV6). Description: Selectivity interaction (Enzymatic assay) EUB0001550a MYLK4.

For the molecule `Cn1cc(-n2cnc3c(NCc4nc5cc(Cl)c(Cl)cc5[nH]4)nc(N4CCOCC4)nc32)cn1`, the % of control in test [1] came out at 0.168%.

Consider `Cc1cc([C@@H](C)Nc2ccccc2C(=O)O)c2nc(N3CCOCC3)cc(=O)n2c1` [AZD-6482], for which, in test [2], the % of control was found to be 98%.

Turning to `COc1cc(N(C)c2ccnc3ccc(C(F)(F)F)cc23)cc(OC)c1OC`, in test [3], the % binding was found to be 93%.

As to `CCN(CC)CCCCNc1ncc2cc(-c3cc(OC)cc(OC)c3)c(NC(=O)NC(C)(C)C)nc2n1`, the % of control in test [4] is 100%.

Consider `COc1cc(Nc2nc(C)cc(-c3cnn4nc(OC)ccc34)n2)cc(C(F)(F)F)c1`, for which, in test [5], the % of control amounted to 100%.

As to `Cc1cc(F)c(C(=O)Nc2cccc(-c3nncn3C(C)C)n2)cc1-n1cnc(C2CC2)c1`, the % of control in test [6] was 100%.

In the case of `CN(C(=O)c1cnn2cccnc12)c1cc2c(cc1N1CCOCC1)C(=O)N(C[C@@H](F)C(C)(C)O)C2`, the dTM in test [7] worked out at 0 K.

The term IC50 denotes the concentration at which inhibition is half-maximal. `CN(C)CC#Cc1ccc2[nH]c3c(c2c1)-c1nc(N)ncc1CCC3` gave an IC50 in test [8] of 0.066 µM.
